Paper PMC10957775, “Integrated chemical characterization, metabolite profiling, and pharmacokinetics analysis of Zhijun Tangshen Decoction by UPLC-Q/TOF-MS” (Frontiers in Pharmacology, 2024)

Test: Multi-compound pharmacokinetics of ZJTSD in rat serum, semi-quantitative UPLC-Q/TOF-MS (peak area ratio versus time, non-compartmental)
Conditions: for pharmacokinetic behavior compared with other prototype compounds and metabolites (in words): non-compartmental analysis
[1] = male, Sprague-Dawley, rat, serum (hepatic portal vein blood), po, 1 mL/100 g body weight, t1/2, metabolites of ZJTSD in rat serum, mean±SD, n=3
[2] = metabolites of ZJTSD in rat serum, mean±SD, n=3, in h
[3] = male, Sprague-Dawley, rat, serum (hepatic portal vein blood), po, 1 mL/100 g body weight
[4] = male, Sprague-Dawley, rat, serum (hepatic portal vein blood), po, 1 mL/100 g body weight, t1/2, prototype compounds of ZJTSD absorbed into rat serum, mean±SD, n=3

Experimental: Thirty male Sprague–Dawley rats (200 ± 20 g) were purchased from the Nanjing Qinglongshan Experimental Animal Center (Nanjing, China). […] All rats were divided randomly into two groups: ZJTSD-dosed group (n = 27) and control group (n = 3). The ZJTSD-dosed group was given the ZJTSD solution by gavage (i.g.) at a dosage of 1 mL/100 g body weight of rats, and the control group was given 0.9% normal saline at the same dose, twice a day for a week. After the last administration, the blood was collected from the hepatic portal vein at 15 min, 30 min, 1 h, 2 h, 4 h, 6 h, 8 h, 12 h, and 24 h, and 3 rats were taken at each time point.
The blood samples of rats were centrifuged at 4,000 rpm for 10 min to obtain the serum. The serum sample (1 mL) was processed with a 3-fold volume using methanol for protein precipitation, with epicoprostanol serving as the internal standard (digoxin and clarithromycin). After vortexing for 3 min, the mixture was centrifuged at 18,000 rpm for 10 min. Subsequently, the supernatant was evaporated at 45°C using a vacuum concentrator. After evaporating the solvent, 150 μL of methanol/water (1:1, v/v) was added, vortexed, sonicated, and then centrifuged at 18,000 rpm for 10 min at 4°C. The resulting supernatant was used for further analysis.
Liquid chromatographic separation was performed using an AB SCIEX LC™ 2.0 system (AB SCIEX, United States) fitted with an Acquity UPLC BEH C18 column (100 mm × 2.1 mm, 1.7 μm; Ireland). The mobile phases in negative and positive ion modes consisted of 0.1% FA aqueous solution (A) and acetonitrile containing 0.1% FA (B). The program of the elution gradient was set as follows: 0∼5 min, 2%∼35 %B; 5∼7 min, 35%∼50%; 7∼10 min, 50%∼70%; 10∼15 min, 70%∼90 %B; 15∼18 min, 90%∼90 %B; 18∼18.5 min, 90%∼2 %B; and 18.5∼20 min, 2%∼2 %B. The injection volume was 3 µL. The flow rate and the column temperature were set at 0.3 mL/min and 40°C, respectively.
The mass spectrometry analysis was performed on a SCIEX ZenoTOF™ 7600 system (AB SCIEX, United States), which was calibrated in the high-sensitivity mode for every 10 samples. Spectra were acquired in the TOF/MS-IDA-TOF MS/MS mode with the ESI source operating in positive and negative ion modes. MS parameters were set as follows: ionization source, ESI; spray voltage, 5,500 kV/–4,500 kV; collision energy, 40 V/–40 V; declustering potential, 80 V/–80 V; ion source temperature, 550°C; and scan range, 100–1250 m/z. Data acquisition and processing were performed using SCIEX OS 2.2 and PeakView 2.2.
A semi-quantitative method was adopted based on the correction peak area versus time ([Wang et al., 2011]; [Lin et al., 2019]). The mean serum time-course profile of pharmacokinetics based on the peak area ratio versus time was plotted using Origin 2018. The kinetic analysis of the peak area ratio (×1,000)–time curve was calculated using Phoenix WinNonlin 8.1 (Phoenix, American) software and illustrated.

Compound	MRT last [3] [h]	Tmax [3] [h]	half-life [4] [h]	also measured
O=C(CCc1ccc(O)cc1)c1ccc(O)cc1O [M11]	–	–	–	half-life [1]: 7.01 ± 2.29 h
Cc1cc(O)c2c(c1)C(=O)c1ccccc1C2=O [M63]	–	–	–	half-life [1]: 5.43 ± 2.61 h
CC1CCC2(C(=O)O)CCC3(C)C(=CCC4C5(C=O)CC(O)C(O)C(C)(C)C5CCC43C)C2C1(C)O (stereo not drawn) [M77]	–	–	–	half-life [1]: 10.8 ± 4.71 h
OC1COCC1O (stereo not drawn) [M87]	–	–	–	MRT(0→t) [2]: 9.59±1.35; Tmax [2]: 1.17±0.76; t1/2 [2]: 17.68±16.89
COC(=O)c1ccc(O)cc1 [M89]	–	–	–	MRT(0→t) [2]: 5.35±0.92; Tmax [2]: 3.00±1.73
O=CCC(O)(CC(=O)O)C(=O)O (stereo not drawn) [M90]	–	–	–	MRT(0→t) [2]: 7.25±1.46; Tmax [2]: 1.08±0.88; t1/2 [2]: 7.50±1.85; Tmax (rat hepatic portal vein serum after oral ZJTSD twice a day for a week, semi-quantitative peak area ratio): ≤ 3.5 h; elimination half-life (t1/2) (rat hepatic portal vein serum after oral ZJTSD, semi-quantitative peak area ratio): > 7.5 h; time to peak (in words) (rat serum after oral ZJTSD): faster time to peak; pharmacokinetic behavior compared with other prototype compounds and metabolites (in words) (rat serum after oral ZJTSD): better pharmacokinetic behavior; AUC (in words) (rat serum after oral ZJTSD, peak area ratio versus time): greater
O=C(O)/C=C/c1ccc(O)cc1 [M91]	–	–	–	MRT(0→t) [2]: 3.97±0.59; Tmax [2]: 1.58±2.10; t1/2 [2]: 3.23±0.95
COc1c(O)ccc2c1C(=O)c1ccccc1C2=O [P14, 2-Hydroxy-1-methoxyanthraquinone]	4.24 ± 0.57	0.67 ± 0.29	3.5 ± 2.06	level of exposure in the blood (in words) (rat serum after oral ZJTSD): higher level of exposure; pharmacokinetic behavior compared with other prototype compounds and metabolites (in words) (rat serum after oral ZJTSD): better pharmacokinetic behavior
O=C1c2ccccc2C(=O)c2cc(CO)c(O)cc21 [P15, 2-Hydroxy-3-hydroxymethylanthraquinone]	4.81 ± 0.31	1.67 ± 2.02	–	–
O=C1c2cccc(O)c2C(=O)c2c(O)cc(CO)cc21 [P17, Aloe-emodin]	5.2 ± 3.03	4.17 ± 3.75	1.73	detection in serum / absorbed form (rat serum after oral ZJTSD): absorbed as prototype compounds

The next lines start with results.

MRT last [3] [h]	Tmax [3] [h]	half-life [4] [h]	Compound	also measured
3.43 ± 0.76	0.67 ± 0.29	2.7 ± 0.14	Cc1cc(=O)c2c(C)cc(O)cc2o1 [P1, 2,5-Dimethyl-7-hydroxychromone]	level of exposure in the blood (in words) (rat serum after oral ZJTSD): higher level of exposure; pharmacokinetic behavior compared with other prototype compounds and metabolites (in words) (rat serum after oral ZJTSD): better pharmacokinetic behavior
3.45 ± 0.58	0.67 ± 0.29	2.17 ± 0.12	Cc1cc(O)cc2oc(CC(C)O)cc(=O)c12 (stereo not drawn) [P2, 7-Hydroxy-2-(2-hydroxypropyl)-5-methylchromen-4-one]	level of exposure in the blood (in words) (rat serum after oral ZJTSD): higher level of exposure; pharmacokinetic behavior compared with other prototype compounds and metabolites (in words) (rat serum after oral ZJTSD): better pharmacokinetic behavior
4.8 ± 0.38	1.83 ± 1.89	4.04 ± 1.91	COc1c(-c2ccccc2)oc2cc(O)cc(O)c2c1=O [P3, 3-Methoxy-5,7-dihydroxyflavone]	–
5.29 ± 0.3	1.67 ± 2.02	3.14 ± 0.86	Cc1cc(=O)c2c(CC(=O)O)cc(O)cc2o1 [P4, 2-Methyl-5-carboxymethyl-7-hydroxychromone]	–
4.23 ± 0.55	0.67 ± 0.29	3.09 ± 0.19	CC(=O)Cc1cc(O)cc2oc(C)cc(=O)c12 [P5, 2-Methyl-5-acetonyl-7-hydroxychromone]	–
12.1 ± 0.02	4.75 ± 4.02	–	COc1cc(C)c2c(=O)cc(C)oc2c1 [P6, 2,5-Dimethyl-7-methoxychromone]	–
10.8 ± 0.72	2.08 ± 1.88	67.3 ± 4.4	COc1cc(-c2coc3cc(O)ccc3c2=O)ccc1O [P10, 7,4'-Dihydroxy-3'-methoxyisoflavone]	–
3.23 ± 0.59	0.67 ± 0.29	4.29 ± 2.71	Cc1cc2c(cc1O)C(=O)c1ccccc1C2=O [P11, 2-Methyl-3-hydroxyanthraquinone]	level of exposure in the blood (in words) (rat serum after oral ZJTSD): higher level of exposure; pharmacokinetic behavior compared with other prototype compounds and metabolites (in words) (rat serum after oral ZJTSD): better pharmacokinetic behavior
3.55 ± 0.57	1.67 ± 2.02	4.7 ± 0.9	O=C(O)c1cc(O)c2c(c1)C(=O)c1cccc(O)c1C2=O [P18, Rhein]	detection in serum / absorbed form (rat serum after oral ZJTSD): absorbed as prototype compounds
4.27 ± 0.55	2.5 ± 3.04	3.45 ± 1.44	COc1c(O)c(C)cc2c1C(=O)c1ccc(O)cc1C2=O [P21, 2,6-Dihydroxy-1-methoxy-3-methylanthraquinone]	–
